Where no end group is shown, it is not given here.
System: Gram-positive and Gram-negative bacteria
Experiment: In vitro disc diffusion of identified amino acid sequences
Assay type: cell-based
Description: Each amino acid sequence identified in each of samples 1, sample 2 and sample 3, were checked for antibacterial activity using the invitro disc diffusion method of Murray P R et al; 1995 (Murray P R, Baron E J, Pfaller M A, Tenover F C, Yolke R H. (1995). Manual of Clinical Microbiology, ASM, Washington, D.C. 6th edition.)
The amino acid sequences were also compared to an Ampicillin standard of 10 μg/mL

Sequence	Antibacterial activity of amino acid sequences	Antibacterial activity compared with the standard drug ampicillin
KRGRLIWRVWRGIW [SEQ ID NO: 4, antibacterial peptide from the <10 kDa fraction of date pits degraded by solid state degradation]	maximum anti-bacterial activity	comparable to the standard drug ampicillin
RQWISRWTWQR [SEQ ID NO:6, antibacterial peptide from the <10 kDa fraction of date pits degraded by solid state degradation]	maximum anti-bacterial activity	comparable to the standard drug ampicillin

Source: US10517920B2, “Antibacterial peptide and method of treatment using the antibacterial peptide” (United Arab Emirates University, priority 2011, dated 2019)
